Data: PubChem BioAssay AID2060485 (Molecular Pharmacology Branch, DTP, NCI, 2025)

System: A375 multi-cell spheroids with HUVEC/MSC, viability
Test: Anticancer human tumor A375 cell line growth inhibition [GQUAD];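 note: spheroids exposed to compounds for seven days before readout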
Details: for IC50: curve of first compound; for viability, T/C: stronger effect = lower value
In short: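 Multi-cell-type spheroids of tumor cells with HUVEC and mesenchymal stem cells, treated with drug combinations. Concentrations descend in half-log steps from near clinical Cmax, or from 10 microM where Cmax is unknown; viability read-out.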

[1] = second compound 0.0316 µM, first compound 0.0316 µM
[2] = second compound 0.0316 µM, first compound 0.1 µM
[3] = second compound 0.0316 µM, first compound 0.316 µM
[4] = second compound 0.0316 µM, first compound 1 µM
[5] = second compound 0.0316 µM, first compound 3.16 µM
[6] = second compound 0.0316 µM, first compound 10 µM
[7] = second compound 0.1 µM, first compound 0.0316 µM
[8] = second compound 0.1 µM, first compound 0.1 µM
[9] = second compound 0.1 µM, first compound 0.316 µM
[10] = second compound 0.1 µM, first compound 1 µM
[11] = second compound 0.1 µM, first compound 3.16 µM
[12] = second compound 0.1 µM, first compound 10 µM
[13] = second compound 0.316 µM, first compound 0.0316 µM
[14] = second compound 0.316 µM, first compound 0.1 µM
[15] = second compound 0.316 µM, first compound 0.316 µM
[16] = second compound 0.316 µM, first compound 1 µM
[17] = second compound 0.316 µM, first compound 3.16 µM
[18] = second compound 0.316 µM, first compound 10 µM
[19] = second compound 1 µM, first compound 0.0316 µM
[20] = second compound 1 µM, first compound 0.1 µM
[21] = second compound 1 µM, first compound 0.316 µM
[22] = second compound 1 µM, first compound 1 µM
[23] = second compound 1 µM, first compound 3.16 µM
[24] = second compound 1 µM, first compound 10 µM
[25] = second compound 3.16 µM, first compound 0.0316 µM
[26] = second compound 3.16 µM, first compound 0.1 µM
[27] = second compound 3.16 µM, first compound 0.316 µM
[28] = second compound 3.16 µM, first compound 1 µM
[29] = second compound 3.16 µM, first compound 3.16 µM
[30] = second compound 3.16 µM, first compound 10 µM
[31] = second compound 10 µM, first compound 0.0316 µM
[32] = second compound 10 µM, first compound 0.1 µM
[33] = second compound 10 µM, first compound 0.316 µM
[34] = second compound 10 µM, first compound 1 µM
[35] = second compound 10 µM, first compound 3.16 µM
[36] = second compound 10 µM, first compound 10 µM

## CC(=O)O[C@H]1C(=O)[C@@]2(C)[C@H]([C@H](OC(=O)c3ccccc3)[C@]3(O)C[C@H](OC(=O)[C@H](O)[C@@H](NC(=O)c4ccccc4)c4ccccc4)C(C)=C1C3(C)C)[C@]1(OC(C)=O)CO[C@@H]1C[C@@H]2O + Cc1[nH]c2ccc(F)cc2c1-c1nc2c3cccnc3c3ncccc3c2[nH]1
Second compound 0.0316 µM
  IC50: 0.0468 µM
Second compound 0.1 µM
  IC50: 0.0523 µM
Second compound 0.316 µM
  IC50: 0.0525 µM
Second compound 1 µM
  IC50: 0.0509 µM
Second compound 3.16 µM
  IC50: < 0.0316 µM
Second compound 10 µM
  IC50: < 0.0316 µM
[1]
  viability, T/C: 67.1%
[2]
  viability, T/C: 16.8%
[3]
  viability, T/C: 9.66%
[4]
  viability, T/C: 8.81%
[5]
  viability, T/C: 9.39%
[6]
  viability, T/C: 10.1%
[7]
  viability, T/C: 73.9%
[8]
  viability, T/C: 19.3%
[9]
  viability, T/C: 10.3%
[10]
  viability, T/C: 11.5%
[11]
  viability, T/C: 7.58%
[12]
  viability, T/C: 12.6%
[13]
  viability, T/C: 72.2%
[14]
  viability, T/C: 21.9%
[15]
  viability, T/C: 11.6%
[16]
  viability, T/C: 11.8%
[17]
  viability, T/C: 10.5%
[18]
  viability, T/C: 13.2%
[19]
  viability, T/C: 68.5%
[20]
  viability, T/C: 23.8%
[21]
  viability, T/C: 14.5%
[22]
  viability, T/C: 13.7%
[23]
  viability, T/C: 13.9%
[24]
  viability, T/C: 17.3%
[25]
  viability, T/C: 25.6%
[26]
  viability, T/C: 16%
[27]
  viability, T/C: 15%
[28]
  viability, T/C: 19.8%
[29]
  viability, T/C: 14.5%
[30]
  viability, T/C: 12.9%
[31]
  viability, T/C: 33.6%
[32]
  viability, T/C: 22.9%
[33]
  viability, T/C: 18.8%
[34]
  viability, T/C: 18.8%
[35]
  viability, T/C: 17.9%
[36]
  viability, T/C: 18.8%

## COc1ncnc(C2CC2)c1-c1ncc2cnn(Cc3ccc(-c4nc(C(F)(F)F)cn4C(C)C)cc3)c2n1 + Cc1[nH]c2ccc(F)cc2c1-c1nc2c3cccnc3c3ncccc3c2[nH]1
Second compound 0.0316 µM
  IC50: > 10 µM
Second compound 0.1 µM
  IC50: > 10 µM
Second compound 0.316 µM
  IC50: > 10 µM
Second compound 1 µM
  IC50: > 10 µM
Second compound 3.16 µM
  IC50: 3.73 µM
Second compound 10 µM
  IC50: 6.58 µM
[1]
  viability, T/C: 102%
[2]
  viability, T/C: 107%
[3]
  viability, T/C: 109%
[4]
  viability, T/C: 108%
[5]
  viability, T/C: 107%
[6]
  viability, T/C: 106%
[7]
  viability, T/C: 119%
[8]
  viability, T/C: 106%
[9]
  viability, T/C: 93.8%
[10]
  viability, T/C: 112%
[11]
  viability, T/C: 107%
[12]
  viability, T/C: 123%
[13]
  viability, T/C: 104%
[14]
  viability, T/C: 104%
[15]
  viability, T/C: 108%
[16]
  viability, T/C: 106%
[17]
  viability, T/C: 112%
[18]
  viability, T/C: 108%
[19]
  viability, T/C: 104%
[20]
  viability, T/C: 106%
[21]
  viability, T/C: 99.9%
[22]
  viability, T/C: 106%
[23]
  viability, T/C: 100%
[24]
  viability, T/C: 104%
[25]
  viability, T/C: 72.2%
[26]
  viability, T/C: 72.5%
[27]
  viability, T/C: 77%
[28]
  viability, T/C: 61%
[29]
  viability, T/C: 54.1%
[30]
  viability, T/C: 34.3%
[31]
  viability, T/C: 88.9%
[32]
  viability, T/C: 92.9%
[33]
  viability, T/C: 87.2%
[34]
  viability, T/C: 79.7%
[35]
  viability, T/C: 61.3%
[36]
  viability, T/C: 43.5%

## CC(C)(O)C1CCC(Nc2ccc3ncc(-c4cccc(C(F)(F)F)c4)n3n2)CC1 (stereo unspecified) + CN(C)c1ccc(Nc2c3ccc(NC(=O)CCN4CCCC4)cc3nc3cc(NC(=O)CCN4CCCC4)ccc23)cc1
Second compound 0.0316 µM
  IC50: > 10 µM
Second compound 0.1 µM
  IC50: > 10 µM
Second compound 0.316 µM
  IC50: > 10 µM
Second compound 1 µM
  IC50: > 10 µM
Second compound 3.16 µM
  IC50: 10 µM
Second compound 10 µM
  IC50: 2.18 µM
[1]
  viability, T/C: 95.9%
[2]
  viability, T/C: 93%
[3]
  viability, T/C: 95.7%
[4]
  viability, T/C: 104%
[5]
  viability, T/C: 84%
[6]
  viability, T/C: 92.9%
[7]
  viability, T/C: 93.1%
[8]
  viability, T/C: 92.6%
[9]
  viability, T/C: 96.6%
[10]
  viability, T/C: 90.6%
[11]
  viability, T/C: 79.2%
[12]
  viability, T/C: 88.5%
[13]
  viability, T/C: 99%
[14]
  viability, T/C: 91.2%
[15]
  viability, T/C: 88.9%
[16]
  viability, T/C: 104%
[17]
  viability, T/C: 80.6%
[18]
  viability, T/C: 92.8%
[19]
  viability, T/C: 96.7%
[20]
  viability, T/C: 92.4%
[21]
  viability, T/C: 97.7%
[22]
  viability, T/C: 95.1%
[23]
  viability, T/C: 75.9%
[24]
  viability, T/C: 85%
[25]
  viability, T/C: 93.7%
[26]
  viability, T/C: 99.2%
[27]
  viability, T/C: 97.7%
[28]
  viability, T/C: 98.1%
[29]
  viability, T/C: 49.6%
[30]
  viability, T/C: 68.7%
[31]
  viability, T/C: 94.6%
[32]
  viability, T/C: 91.2%
[33]
  viability, T/C: 96.7%
[34]
  viability, T/C: 84.9%
[35]
  viability, T/C: 25.9%
[36]
  viability, T/C: 40.9%
